Values after ≈ are worked out from the molar mass of the structure shown. Where a SMILES comes first, the peptide text is derived from it. The star is where a group is joined. βNA = c1ccc2cc(N*)ccc2c1
Legend:
[1] = test system: Escherichia coli; assay: Antibacterial activity against multi drug-resistant Escherichia coli EM5 mutant after 24 hrs by serial dilution method; format: functional
[2] = test system: Escherichia coli; assay: Antibacterial activity against multi drug-resistant Escherichia coli KG4 after 24 hrs by serial dilution method; format: functional; details: KG4, 24 h
[3] = test system: Escherichia coli; assay: Antibacterial activity against multi drug-resistant Escherichia coli EM7 mutant after 24 hrs by serial dilution method; format: functional
[4] = test system: Escherichia coli; assay: Antibacterial activity against multi drug-sensitive Escherichia coli MTCC 739 after 24 hrs by serial dilution method; format: functional; details: MTCC 739, 24 h
[5] = test system: Escherichia coli; assay: Antibacterial activity against multi drug-resistant Escherichia coli KG1 after 24 hrs by serial dilution method; format: functional; details: KG1, 24 h
[6] = test system: Staphylococcus epidermidis; assay: Inhibition of biofilm formation in Staphylococcus epidermidis RP62A at 1.5 ug/ml after 24 hrs by MTT assay; format: functional
[7] = test system: Staphylococcus aureus; assay: Inhibition of biofilm formation in Staphylococcus aureus ATCC 25923 at 1.5 ug/ml after 24 hrs by MTT assay; format: functional; details: ATCC 25923, 24 h
[8] = test system: Staphylococcus aureus; assay: Inhibition of biofilm formation in Staphylococcus aureus ATCC 29213 at 1.5 ug/ml after 24 hrs by MTT assay; format: functional; details: ATCC 29213, 24 h
[9] = test system: Staphylococcus aureus; assay: Inhibition of biofilm formation in Staphylococcus aureus ATCC 657 at 1.5 ug/ml after 24 hrs by MTT assay; format: functional; details: ATCC 657, 24 h
[10] = test system: Staphylococcus aureus; assay: Inhibition of biofilm formation in Staphylococcus aureus ATCC 702 at 1.5 ug/ml after 24 hrs by MTT assay; format: functional; details: ATCC 702, 24 h
[11] = test system: Staphylococcus epidermidis; assay: Inhibition of biofilm formation in Staphylococcus epidermidis DSM 3269 at 1.5 ug/ml after 24 hrs by MTT assay; format: functional; details: DSM 3269, 24 h
[12] = Inhibition of Klebsiella pneumoniae NP6 KPC-2 expressed in Escherichia coli DH5alpha
[13] = Inhibition of bacterial IMP-1 using nitrocefin as substrate; parameters: species or system Bacteria
[14] = test system: Escherichia coli; assay: Antimicrobial activity against Escherichia coli; format: functional
[15] = Inhibition of Escherichia coli PBP2
[16] = test system: Pseudomonas aeruginosa; assay: Antimicrobial activity against Pseudomonas aeruginosa; format: functional
[17] = test system: Enterobacter; assay: Antimicrobial activity against Enterobacter; format: functional
[18] = test system: Staphylococcus aureus; assay: Antibiofilm activity against methicillin-resistant Staphylococcus aureus BAA-44 after 24 hrs by crystal violet staining based assay; format: functional; details: BAA-44, 24 h
[19] = test system: Staphylococcus aureus; assay: Antibiofilm activity against methicillin-resistant Staphylococcus aureus BAA-44 at 100 uM after 24 hrs by crystal violet staining based assay; format: functional; details: BAA-44, 24 h
[20] = test system: Staphylococcus aureus; assay: Antibacterial activity against Staphylococcus aureus 1199B after 24 hrs by broth microdilution method; format: functional
[21] = test system: Staphylococcus aureus; assay: Antibacterial activity against Staphylococcus aureus ATCC 25923 after 24 hrs by broth microdilution method; format: functional; details: ATCC 25923, 24 h
[22] = test system: Staphylococcus aureus; assay: Antibacterial activity against planktonic Staphylococcus aureus ATCC 43866 after 24 hrs by broth microdilution method; format: functional; details: ATCC 43866, 24 h
[23] = test system: Staphylococcus epidermidis; assay: Antibacterial activity against planktonic Staphylococcus epidermidis RP62A after 24 hrs by broth microdilution method; format: functional
[24] = test system: Staphylococcus aureus; assay: Antibacterial activity against planktonic Staphylococcus aureus ATCC 29213 after 24 hrs by broth microdilution method; format: functional; details: ATCC 29213, 24 h
[25] = molecular target: T1, Quinolone resistance protein NorA (Staphylococcus aureus) (UniProt P0A0J7); assay: Inhibition of Staphylococcus aureus 1199B NorA assessed as potentiation of ciprofloxacin-induced antibacterial activity at 2 ug/ml after 24 hrs
T1 sequence (whole entry): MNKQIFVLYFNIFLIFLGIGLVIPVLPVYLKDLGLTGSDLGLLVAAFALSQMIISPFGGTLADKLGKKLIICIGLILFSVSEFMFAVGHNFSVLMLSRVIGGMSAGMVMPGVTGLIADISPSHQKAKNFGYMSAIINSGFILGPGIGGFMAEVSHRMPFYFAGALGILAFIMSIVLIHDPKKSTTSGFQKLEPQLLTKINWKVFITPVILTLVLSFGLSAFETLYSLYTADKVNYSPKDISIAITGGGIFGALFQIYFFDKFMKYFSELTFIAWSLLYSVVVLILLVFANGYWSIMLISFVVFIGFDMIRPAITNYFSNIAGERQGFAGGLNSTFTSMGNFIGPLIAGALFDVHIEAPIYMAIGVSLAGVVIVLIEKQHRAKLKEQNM

[26] = molecular target: T1, Quinolone resistance protein NorA (Staphylococcus aureus); assay: Inhibition of Staphylococcus aureus 1199B NorA assessed as potentiation of ciprofloxacin-induced antibacterial activity at 0.5 ug/ml after 24 hrs
[27] = molecular target: T2, Quinolone resistance protein NorA (Staphylococcus aureus, UniProt P0A0J7); assay: Inhibition of Staphylococcus aureus 1199B NorA assessed as reduction in ethidium bromide efflux by fluorescence assay
T2 sequence (P0A0J7 whole entry): T1 sequence (whole entry)

[28] = test system: Pseudomonas aeruginosa; assay: Inhibition of Pseudomonas aeruginosa MexAB-Oprm assessed as potentiation of ciprofloxacin-induced antibacterial activity at 50 ug/ml (reference value: 16 ug/ml)
[29] = test system: Pseudomonas aeruginosa; assay: Inhibition of Pseudomonas aeruginosa MexAB-Oprm assessed as potentiation of levofloxacin-induced antibacterial activity at 50 ug/ml (reference value: 16 ug/ml)
[30] = molecular target: T1, Quinolone resistance protein NorA (Staphylococcus aureus); assay: Inhibition of Staphylococcus aureus 1199B NorA assessed as potentiation of ciprofloxacin-induced antibacterial activity at 32 ug/ml after 24 hrs (reference value: 16 ug/ml)
[31] = test system: Escherichia coli; assay: Potentiation of tetracycline induced-antimicrobial activity against Escherichia coli assessed as fold reduction in tetracycline MIC at 25 ug/ml after 24 hrs by broth checkerboard method; format: functional

For `CCCCCCCCCCCCCC(=O)O[C@H]1CCC(=O)c2ccccc21` [4-O-MYRICITOYL-ALPHA-TETRALONE], the MIC [1] was 250 to 1000 µg/mL (≈ 671 to 2680 µM), the MIC [2] was 250 to 1000 µg/mL (≈ 671 to 2680 µM) and the MIC [3] was 250 to 1000 µg/mL (≈ 671 to 2680 µM). It also gave an MIC [4] of 250 to 1000 µg/mL (≈ 671 to 2680 µM) and an MIC [5] of 250 to 1000 µg/mL (≈ 671 to 2680 µM).

Work on `O=C(c1cc(Br)ccc1O)c1[nH]c(Br)c(Br)c1Br` yielded an inhibition at 1.5 µg/mL [6] greater than 60%, an inhibition at 1.5 µg/mL [7] greater than 60% and an inhibition at 1.5 µg/mL [8] greater than 60%. It also gave an inhibition at 1.5 µg/mL [9] greater than 60%, an inhibition at 1.5 µg/mL [10] greater than 60% and an inhibition at 1.5 µg/mL [11] greater than 60%.

In the case of `CC(=O)Nc1ccc(S(=O)(=O)Nc2ccccc2NS(=O)(=O)c2ccc(NC(C)=O)cc2)cc1`, the IC50 [12] is reported as 200 µM.

With `O=C(O)[C@@H](Cc1ccc2c(c1)OCO2)[C@H](Cc1ccc2c(c1)OCO2)C(=O)O` the IC50 [13] was 0.0027 to 0.009 µM.

`O=C(/C=C/c1ccccc1)O[C@H]1CCC(=O)c2ccccc21` showed an MIC [1] of 250 to 1000 µg/mL (≈ 855 to 3420 µM), an MIC [2] of 250 to 1000 µg/mL (≈ 855 to 3420 µM) and an MIC [3] of 250 to 1000 µg/mL (≈ 855 to 3420 µM). For the same molecule, the MIC [4] was 250 to 1000 µg/mL (≈ 855 to 3420 µM) and the MIC [5] was 250 to 1000 µg/mL (≈ 855 to 3420 µM).

`O=C(NNC(=O)[C@@H]1CC[C@@H]2CN1C(=O)N2OS(=O)(=O)[O-])C1CNC1.[Na+]` gave an MIC [14] of no more than 2 µg/mL, an IC50 [15] of 3.6 µM and an MIC [16] of no more than 2 µg/mL. The MIC [17] was no more than 2 µg/mL.

In the case of `O=C(O[C@H]1CCC(=O)c2ccccc21)c1ccccc1` [4-O-BENZOYL-ALPHA-TETRALONE], the MIC [1] is reported as 250 to 1000 µg/mL (≈ 939 to 3760 µM), the MIC [2] is reported as 250 to 1000 µg/mL (≈ 939 to 3760 µM) and the MIC [3] is reported as 250 to 1000 µg/mL (≈ 939 to 3760 µM). For the same molecule, the MIC [4] was 250 to 1000 µg/mL (≈ 939 to 3760 µM) and the MIC [5] was 250 to 1000 µg/mL (≈ 939 to 3760 µM).

With `CCCCOc1cc(Br)cc(/C=C(\C)Cn2cc(CCCCCc3c[nH]c(N)n3)nn2)c1F` the IC50 [18] was 4.5 µM and the inhibition at 100 µM [19] was greater than 94%.

Work on `C[C@]1(Cn2ccnn2)[C@H](C(=O)O)N2C(=O)C[C@H]2S1(=O)=O` [TAZOBACTAM] yielded an IC50 [12] of 99 µM.

In the case of `CC(C)(C)OC(=O)NCC(NC(=O)c1c[nH]c2ccccc12)c1c[nH]c2ccccc12` (centres undefined), the MIC [20] is reported as greater than 32 µg/mL and the MIC [21] is reported as greater than 32 µg/mL.

With `CCCCCc1ccc(/C=C(\C)Cn2cc(CCCCCc3c[nH]c(N)n3)nn2)cc1` the inhibition at 100 µM [19] was greater than 94%.

Work on `Cc1nn(C)c([N-]C(=O)c2ccc(Cl)cc2Cl)c1[N+]#N` yielded an MIC [22] of 1.5 to 12.5 µg/mL (≈ 4.84 to 40.3 µM), an MIC [23] of 1.5 to 12.5 µg/mL (≈ 4.84 to 40.3 µM) and an MIC [24] of 1.5 to 12.5 µg/mL (≈ 4.84 to 40.3 µM).

For `CC(C)(C)OC(=O)NCC(NC(=O)C(=O)c1c[nH]c2ccccc12)c1c[nH]c2ccccc12` (centres undefined), the MIC [25] was 2 µg/mL, the MIC [20] was greater than 32 µg/mL and the MIC [21] was greater than 32 µg/mL. For the same molecule, the MIC [26] was 4 µg/mL.

`CCCCc1ccc(/C=C(\C)Cn2cc(CCCCCc3c[nH]c(N)n3)nn2)cc1` showed an inhibition at 100 µM [19] greater than 94%.

Molecule `O=C(O)[C@@H](Cc1ccc2c(c1)OCO2)[C@@H](Cc1ccc2c(c1)OCO2)C(=O)O` has an IC50 [13] of 200 µM.

Molecule `COC(=O)[C@H]1[C@H]2C[C@@H]3c4[nH]c5cc(OC)ccc5c4CCN3C[C@H]2C[C@@H](OC(=O)c2cc(OC)c(OC)c(OC)c2)[C@@H]1OC` [RESERPINE] has an IC50 [27] of 9 to 14 µM.

For `N=C(N)NCCC[C@H](NC(=O)[C@@H](N)Cc1ccccc1)C(=O)Nc1ccc2ccccc2c1` (H-Phe-Arg-βNA), the MIC [28] was 2 µg/mL and the MIC [29] was 2 µg/mL.

Molecule `O=C(NC(C(=O)O)c1c[nH]c2ccc(Br)cc12)c1c[nH]c2ccc(Br)cc12` (centres undefined) has an MIC [20] greater than 32 µg/mL, an MIC [21] greater than 32 µg/mL and an MIC [30] of 4 µg/mL.

With `O=C1CC[C@H](O)c2ccccc21` [(-)-4-HYDROXY-ALPHA-TETRALONE] the MIC [1] was 250 to 1000 µg/mL (≈ 1540 to 6170 µM), the MIC [2] was 250 to 1000 µg/mL (≈ 1540 to 6170 µM) and the MIC [3] was 250 to 1000 µg/mL (≈ 1540 to 6170 µM). The MIC [4] was 250 to 1000 µg/mL (≈ 1540 to 6170 µM), the “fold change (FC)” value [31] was 4 and the MIC [5] was 250 to 1000 µg/mL (≈ 1540 to 6170 µM).

From ChEMBL document CHEMBL4024742, “Pharmaceutical Approaches to Target Antibiotic Resistance Mechanisms” (J Med Chem, 2017)
